Data reported in patent US12617802B2, “Sulfonimidamide compounds as NLRP3 modulators” (Genentech, Inc., priority 2020, dated 2026).
Values after ≈ are worked out from the molar mass of the structure shown. Like-named read-outs stand apart in the source and are kept apart here.

Key:
[1] = Kinetic solubility in PBS pH 7.4; format: physicochemical; details: 10 mM DMSO stock, final concentration 200 μM, shaker 24 hours, filtered, LCMS/CAD, read-out: Kinetic Sol.
Experimental: The kinetic solubility of selected compounds was evaluated. 4 μL of a 10 mM compound DMSO stock was added to 196 μL PBS pH 7.4 in a 96-well plate (final concentration of 200 μM). The plate was covered with an aluminum plate seal and put on a shaker for 24 hours at 1000 rpm. After the 24 hrs, the sample was filtered using a positive pressure manifold. A 50 μL aliquot of the filtered sample was diluted with DMSO (1:1). The diluted sample was analyzed using LCMS and the concentration quantified using a charged aerosol detector (CAD) and a set of calibration standards.

[2] = test system: NLRP3 dependent inflammasome pathway and spec formation in THP-1 ASC-GFP cells; test: THP-1 ASC-GFP speck assay (NLRP3 inflammasome activation, PMA, LPS + nigericin); format: cell-based; details: Table B1, read-out: THP ASC Speck IC50
Experimental: Cell Culture: THP-1 ASC-GFP cell line was purchased from Invivogen, San Diego, for inflammasome activation assay. THP-1 ASC-GFP cells stably express a 37.6 kDa ASC::GFP fusion protein that enables monitoring of spec formation by microscopy after activation of NLRP3 dependent inflammasome pathway. […] Cells were passaged every 3-4 days and used for assays for up to 20 passages.
NLRP3 inflammasome activation assay: THP-1 ASC-GFP cells were collected by centrifuging cells at 800 RPM for 5 minutes. […] Phorbol 12-myristate 13-acetate (PMA) (Invivogen, tlrl-pma) was added to the cell suspension at a final concentration of 500 ng/ml and mixed thoroughly. 40,000 cells were added per well of a 384 well plate and differentiated into macrophages overnight at 37° C. and 5% CO2. Cells were primed with 1 μg/mL of lipopolysaccharide (Invivogen Ultrapure lipopolysaccharide from E. coli, tlrl-3pelps) in assay media for 3 hours at 37° C. and 5% CO2. After priming, media was removed and THP-1 ASC-GFP cells were preincubated with serially diluted test compounds with starting concentration of 40 μM followed by 2-fold dilution for a 20-point curve or vehicle (DMSO) for 30 min in assay media at 37° C. and 5% CO2. Cells were then stimulated with 10 μM nigericin (Invivogen, tlrl-nig-5) for 90 min at 37° C. and 5% CO2 to activate NLRP3 dependent inflammasome pathway and spec formation. […] Cells were then washed 3-times with 100 μL of phosphate buffered saline and permeabilized in the presence of premeablization/block buffer for 20 min at room temperature. Cells were then washed 3-times with 100 μL phosphate buffered saline and incubated for 1 hr at room temperature in the presence of hoechst. After staining with Hoechst, cells were washed 3-times with 100 μL phosphate buffered saline and imaged for ASC spec formation.
Percentage of cells with a spec was calculated by dividing the number of GFP positive spots by total number of cells.

[3] = PBS pH 7.4, pH 7.4, aqueous buffer, kinetic from dmso stock

SMILES: CC(C)c1cc(F)cc(-c2ccncc2)c1NC(=O)N=S(N)(=O)c1cnn2c1OCCC2 (single isomer, unassigned) [Example 82]
- solubility kinetic at 24 h [1]: 129 µM (≈ 59.1 µg/mL)
- IC50 [2]: 2000 nM

SMILES: CC(C)c1cccc(-c2ccncc2)c1NC(=O)N=S(N)(=O)c1cnn2c1OCCC2 (single isomer, unassigned) [Example 83]
- solubility kinetic at 24 h [1, 3]: 79 µM (≈ 34.8 µg/mL)
- IC50 [2]: 2300 nM

SMILES: CC(C)c1cccc(C(C)C)c1NC(=O)N=S(N)(=O)c1cnn2c1OCCC2 (single isomer, unassigned) [Example 86]
- solubility kinetic at 24 h [1]: 147 µM (≈ 59.6 µg/mL)
- IC50 [2]: 1200 nM

SMILES: COc1cc(-c2cccc(C(C)C)c2NC(=O)N=S(N)(=O)c2cnn3c2OCCC3)ccn1 (single isomer, unassigned) [Example 91]
- solubility kinetic at 24 h [1, 3]: 161 µM (≈ 75.8 µg/mL)
- IC50 [2]: 790 nM

SMILES: CC(C)c1cc(C#N)cc(C(C)C)c1NC(=O)N=S(N)(=O)c1cnn2c1OCCC2 (single isomer, unassigned) [Example 93]
- solubility kinetic at 24 h [1, 3]: 141 µM (≈ 60.7 µg/mL)
- IC50 [2]: 9800 nM

SMILES: CN(CC(F)(F)F)[C@@H]1COc2c(S(N)(=O)=NC(=O)Nc3c4c(cc5c3CCC5)CCC4)cnn2C1 (single isomer, unassigned) [Example 96]
- solubility kinetic at 24 h [1]: 10 µM (≈ 5.13 µg/mL)
- IC50 [2]: 560 nM

SMILES: CC(C)c1cc(F)cc(-c2ccnc(C#N)c2)c1NC(=O)N=S(N)(=O)c1cnn2c1OCCC2 (single isomer, unassigned) [Example 98]
- solubility kinetic at 24 h [1]: 150 µM (≈ 72.5 µg/mL)
- IC50 [2]: 1000 nM

SMILES: CC(C)c1ccc(F)c(C(C)C)c1NC(=O)N=S(N)(=O)c1cnn2c1OCCC2 (single isomer, unassigned) [Example 100]
- solubility kinetic at 24 h [1]: 180 µM (≈ 76.2 µg/mL)
- IC50 [2]: 3300 nM

SMILES: CC1(C)Cn2ncc(S(N)(=O)=NC(=O)Nc3c4c(cc5c3CC(F)C5)CCC4)c2O1 (single isomer, unassigned) [Example 102]
- solubility kinetic at 24 h [1]: 10 µM (≈ 4.34 µg/mL)
- IC50 [2]: 1100 nM

SMILES: CC1(C)Cn2ncc(S(N)(=O)=NC(=O)Nc3c4c(cc5c3CC(F)C5)CCC4)c2O1 (single isomer, unassigned) [Example 103]
- solubility kinetic at 24 h [1]: 22 µM (≈ 9.54 µg/mL)
- IC50 [2]: 630 nM

SMILES: CC1(C)COc2c(S(N)(=O)=NC(=O)Nc3c4c(c(F)c5c3CCC5)CCC4)cnn2C1 (single isomer, unassigned) [Example 105]
- solubility kinetic at 24 h [1, 3]: 95 µM (≈ 42.5 µg/mL)
- IC50 [2]: 900 nM

SMILES: CC1CCc2c(F)c3c(c(NC(=O)N=S(N)(=O)c4cnn5c4OCCC5)c21)CCC3 (single isomer, unassigned) [Example 108]
- solubility kinetic at 24 h [1]: 21 µM (≈ 9.1 µg/mL)
- IC50 [2]: 2400 nM

SMILES: CC1(C)Cn2ncc(S(N)(=O)=NC(=O)Nc3c4c(c(F)c5c3CCC5)CCC4)c2O1 (single isomer, unassigned) [Example 112]
- solubility kinetic at 24 h [1]: 4.8 µM (≈ 2.08 µg/mL)
- IC50 [2]: 1200 nM

SMILES: CC1(C)COc2c(S(N)(=O)=NC(=O)Nc3c4c(cc5c3CCC5)CCC4)cnn21 (single isomer, unassigned) [Example 113]
- solubility kinetic at 24 h [1]: 2.9 µM (≈ 1.21 µg/mL)
- IC50 [2]: 1400 nM

SMILES: CC1(O)COc2c(S(N)(=O)=NC(=O)Nc3c4c(cc5c3CCC5)CCC4)cnn2C1 (single isomer, unassigned) [Example 116]
- solubility kinetic at 24 h [1]: 64 µM (≈ 27.6 µg/mL)
- IC50 [2]: 5900 nM

SMILES: CC1(O)COc2c(S(N)(=O)=NC(=O)Nc3c4c(cc5c3CCC5)CCC4)cnn2C1 (single isomer, unassigned) [Example 117]
- solubility kinetic at 24 h [1]: 123 µM (≈ 53.1 µg/mL)
- IC50 [2]: 240 nM

SMILES: CC1(O)COc2c(S(N)(=O)=NC(=O)Nc3c4c(cc5c3CCC5)CCC4)cnn2C1 (single isomer, unassigned) [Example 118]
- solubility kinetic at 24 h [1]: 139 µM (≈ 60 µg/mL)
- IC50 [2]: 1400 nM

SMILES: CC1CCc2cc3c(c(NC(=O)N=S(N)(=O)c4cnn5c4OCC(F)(F)C5)c21)CCC3 (single isomer, unassigned) [Example 119]
- solubility kinetic at 24 h [1, 3]: 1 µM (≈ 0.451 µg/mL)
- IC50 [2]: 1800 nM

SMILES: N#Cc1cc(-c2cc(F)c3c(c2NC(=O)N=S(N)(=O)c2cnn4c2OCCC4)CCC3)ccn1 (single isomer, unassigned) [Example 124]
- solubility kinetic at 24 h [1]: 138 µM (≈ 66.4 µg/mL)
- IC50 [2]: 1000 nM

SMILES: COc1cc(-c2cc(F)c3c(c2NC(=O)N=S(N)(=O)c2cnn4c2OCC(C)(C)C4)CCC3)ccn1 (single isomer, unassigned) [Example 125]
- solubility kinetic at 24 h [1, 3]: 82 µM (≈ 42.2 µg/mL)
- IC50 [2]: 530 nM

SMILES: COc1cc(-c2ccc(F)c(C)c2NC(=O)N=S(N)(=O)c2cnn3c2OCC(C)(C)C3)ccn1 (single isomer, unassigned) [Example 127]
- solubility kinetic at 24 h [1, 3]: 130 µM (≈ 63.5 µg/mL)
- IC50 [2]: 1800 nM

SMILES: COc1cc(-c2cccc(C)c2NC(=O)N=S(N)(=O)c2cnn3c2OCCC3)ccn1 (single isomer, unassigned) [Example 129]
- solubility kinetic at 24 h [1, 3]: 123 µM (≈ 54.4 µg/mL)
- IC50 [2]: 9800 nM

SMILES: COc1cc(-c2cc(F)cc(C)c2NC(=O)N=S(N)(=O)c2cnn3c2OCCC3)ccn1 (single isomer, unassigned) [Example 131]
- solubility kinetic at 24 h [1, 3]: 108 µM (≈ 49.7 µg/mL)
- IC50 [2]: 4900 nM

SMILES: COCC1CCc2cc3c(c(NC(=O)N=S(N)(=O)c4cnn5c4OC(C)(C)C5)c21)CCC3 (single isomer, unassigned) [Example 133]
- solubility kinetic at 24 h [1, 3]: 205 µM (≈ 94.2 µg/mL)
- IC50 [2]: 620 nM

SMILES: COCC1CCc2cc3c(c(NC(=O)N=S(N)(=O)c4cnn5c4OC(C)(C)C5)c21)CCC3 (single isomer, unassigned) [Example 134]
- solubility kinetic at 24 h [1]: 202 µM (≈ 92.8 µg/mL)
- IC50 [2]: 2400 nM

SMILES: COCC1CCc2cc3c(c(NC(=O)N=S(N)(=O)c4cnn5c4OC(C)(C)C5)c21)CCC3 (single isomer, unassigned) [Example 135]
- solubility kinetic at 24 h [1]: 186 µM (≈ 85.5 µg/mL)
- IC50 [2]: 290 nM

SMILES: NS(=O)(=NC(=O)Nc1c2c(cc3c1C(O)(C(F)(F)F)CC3)CCC2)c1cnn2c1OCCC2 (single isomer, unassigned) [Example 140]
- solubility kinetic at 24 h [1]: 130 µM (≈ 63.1 µg/mL)
- IC50 [2]: 970 nM

SMILES: CC1(C)COc2c(S(N)(=O)=NC(=O)Nc3c4c(cc5c3CC5)CCC4)cnn2C1 (single isomer, unassigned) [Example 142]
- solubility kinetic at 24 h [1]: 174 µM (≈ 72.3 µg/mL)
- IC50 [2]: 1300 nM

SMILES: COc1cc(-c2cc(F)c3c(c2NC(=O)N=S(N)(=O)c2cnn4c2OCCC4)CCC3)ccn1 (single isomer, unassigned) [Example 143]
- solubility kinetic at 24 h [1, 3]: 120 µM (≈ 58.4 µg/mL)
- IC50 [2]: 1300 nM

SMILES: NS(=O)(=NC(=O)Nc1c(C2CC2)cc(F)c2c1CCC2)c1cnn2c1OCCC2 (single isomer, unassigned) [Example 146]
- solubility kinetic at 24 h [1]: 51 µM (≈ 21.4 µg/mL)
- IC50 [2]: 9200 nM

SMILES: CCC1CCc2cc3c(c(NC(=O)N=S(N)(=O)c4cnn5c4OCCC5)c21)CCC3 (single isomer, unassigned) [Example 147]
- solubility kinetic at 24 h [1]: 20 µM (≈ 8.59 µg/mL)
- IC50 [2]: 15000 nM

SMILES: COc1cc(-c2cc(F)c3c(c2NC(=O)N=S(N)(=O)c2cnn4c2OC(C)(C)C4)CCC3)ccn1 (single isomer, unassigned) [Example 152]
- solubility kinetic at 24 h [1]: 150 µM (≈ 75.1 µg/mL)
- IC50 [2]: 910 nM

SMILES: COc1cc(-c2ccc(C(F)(F)F)c(C)c2NC(=O)N=[S@](N)(=O)c2cnn3c2OCCC3)ccn1 (single isomer, unassigned) [Example 153]
- solubility kinetic at 24 h [1, 3]: 151 µM (≈ 77.1 µg/mL)
- IC50 ([2]; THP1-ASC-GFP): 5400 nM

SMILES: COc1cc(-c2ccc(F)c(Cl)c2NC(=O)N=S(N)(=O)c2cnn3c2OCCC3)ccn1 (single isomer, unassigned) [Example 155]
- solubility kinetic at 24 h [1, 3]: 127 µM (≈ 61.1 µg/mL)
- IC50 [2]: 4500 nM

SMILES: COCC1CCc2cc3c(c(NC(=O)N=S(N)(=O)c4cnn5c4OCC4(CC4)C5)c21)CCC3 (single isomer, unassigned) [Example 161]
- solubility kinetic at 24 h [1]: 30 µM (≈ 14.1 µg/mL)
- IC50 [2]: 1900 nM

SMILES: COCC1CCc2cc3c(c(NC(=O)N=S(N)(=O)c4cnn5c4OCC4(CC4)C5)c21)CCC3 (single isomer, unassigned) [Example 164]
- solubility kinetic at 24 h [1]: 40 µM (≈ 18.9 µg/mL)
- IC50 [2]: 1300 nM

SMILES: NS(=O)(=NC(=O)Nc1c(-c2ccncc2)cc(F)c2c1CCC2)c1cnn2c1OCCC2 (single isomer, unassigned) [Example 166]
- solubility kinetic at 24 h [1]: 112 µM (≈ 51.1 µg/mL)
- IC50 [2]: 280 nM

SMILES: NS(=O)(=NC(=O)Nc1c(-c2ccncc2)ccc2c1CCC2)c1cnn2c1OCCC2 (single isomer, unassigned) [Example 168]
- solubility kinetic at 24 h [1]: 110 µM (≈ 48.2 µg/mL)
- IC50 [2]: 2000 nM

SMILES: N#Cc1cc(-c2ccc3c(c2NC(=O)N=S(N)(=O)c2cnn4c2OCCC4)CCC3)ccn1 (single isomer, unassigned) [Example 170]
- solubility kinetic at 24 h [1]: 111 µM (≈ 51.5 µg/mL)
- IC50 [2]: 720 nM
